Values belong to the compound of their own block, whether it stands above or below them. Activity calls are given as the source filed them.
Assays:
[1] = target: Protein Rev (Human immunodeficiency virus type 1 group M subtype B (isolate HXB2)(HIV-1), UniProt P04618); test: blockers of HIV Rev/RRE RNA complex – biochemical, fluorescence polarization, HIV-1, dose response (AID 434976); set-up: species or system Human immunodeficiency virus 1
[2] = target: T1, Fibrinogen beta chain (Homo sapiens, UniProt P02675); test: Fluorescence polarization-based biochemical high throughput dose response assay to identify inhibitors that disrupt the binding of a cyclic peptide (Tn7) to the fibrin proteolytic product D-Dimer and fragment E complex [DD(E )].
T1 sequence (P02675 whole entry, the tested form may be a part): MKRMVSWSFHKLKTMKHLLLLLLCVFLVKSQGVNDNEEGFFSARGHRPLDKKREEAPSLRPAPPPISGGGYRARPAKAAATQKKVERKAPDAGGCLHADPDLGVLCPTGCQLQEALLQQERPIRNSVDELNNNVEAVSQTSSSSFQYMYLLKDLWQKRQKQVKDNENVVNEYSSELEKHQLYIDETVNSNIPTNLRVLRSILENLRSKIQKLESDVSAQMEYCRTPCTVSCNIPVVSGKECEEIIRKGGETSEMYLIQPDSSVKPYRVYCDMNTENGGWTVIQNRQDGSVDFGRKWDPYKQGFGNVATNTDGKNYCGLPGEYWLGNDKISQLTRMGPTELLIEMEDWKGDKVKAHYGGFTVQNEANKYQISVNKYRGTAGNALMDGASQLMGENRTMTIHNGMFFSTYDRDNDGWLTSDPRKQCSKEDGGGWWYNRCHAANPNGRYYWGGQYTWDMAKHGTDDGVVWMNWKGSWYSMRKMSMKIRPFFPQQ

[3] = target: Female germline-specific tumor suppressor gld-1 (Caenorhabditis elegans, UniProt Q17339); test: blockers of GLD-1/TGE RNA complex formation – biochemical, fluorescence polarization, C. elegans, dose response (AID 2802);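 further: fluorescence polarization of labeled TGE RNA bound by purified gld-1 protein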
Female germline-specific tumor suppressor gld-1, sequence (Q17339 whole entry, the tested form may be a part): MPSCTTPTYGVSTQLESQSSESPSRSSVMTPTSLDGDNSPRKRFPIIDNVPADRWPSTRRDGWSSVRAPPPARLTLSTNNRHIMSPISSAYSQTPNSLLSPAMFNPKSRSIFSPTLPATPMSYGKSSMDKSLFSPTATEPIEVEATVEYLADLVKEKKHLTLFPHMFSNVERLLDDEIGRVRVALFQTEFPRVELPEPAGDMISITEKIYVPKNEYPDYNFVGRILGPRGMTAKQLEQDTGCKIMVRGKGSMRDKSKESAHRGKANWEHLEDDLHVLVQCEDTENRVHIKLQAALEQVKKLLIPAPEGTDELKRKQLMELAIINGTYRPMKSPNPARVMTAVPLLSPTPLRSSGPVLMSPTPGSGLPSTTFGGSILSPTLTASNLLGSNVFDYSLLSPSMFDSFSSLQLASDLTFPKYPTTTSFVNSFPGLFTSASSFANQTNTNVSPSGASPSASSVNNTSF

[4] = target: T1, Fibrinogen beta chain; test: Fluorescence polarization-based biochemical high throughput dose response assay to identify inhibitors that disrupt the binding of a cyclic peptide (Tn6) to the fibrin proteolytic product D-Dimer and fragment E complex [DD(E )].
[5] = CellTiter-Glo luminescence survival assay, SW480 colon tumor line, concentration-response curve, half-maximal inhibitory concentration (AID 1117338); assay type: functional
[6] = cytotoxicity toward HT-29 cells – cell-based, CellTiter-Glo luminescence, IC50, dose response (AID 1117330); assay type: functional
[7] = Reduced DLD-1 viability, concentration-response, CellTiter-Glo luminescence (AID 1117352); assay type: functional
[8] = cytotoxicity toward HCT116 cells – cell-based, CellTiter-Glo luminescence, IC50, dose response (AID 1117332); assay type: functional; conditions: HCT-116
[9] = CCR5-tropic HIV-1 fusion blockers – cell-based, CCR5-tropic Env, dose response (AID 2279); assay type: functional
[10] = Potency on glucagon-like peptide 1 release, dose-response in NCI-H716 cell line, half maximal inhibitory concentration (AID 1117344); assay type: functional, cell-based
[11] = SNU-C1 cell viability reduction, dose response, CellTiter-Glo luminescence (AID 1117323); assay type: functional, cell-based
[12] = RKO cell viability reduction, dose response, CellTiter-Glo luminescence (AID 1117322); assay type: functional
[13] = target: Envelope glycoprotein gp160 (Human immunodeficiency virus 1, UniProt Q6QLK5); test: cell-free HIV fusion peptide-binding blockers – biochemical, uHTS, fluorescence dequenching, […] (AID 1986)
Envelope glycoprotein gp160, sequence (Q6QLK5 whole entry, the tested form may be a part): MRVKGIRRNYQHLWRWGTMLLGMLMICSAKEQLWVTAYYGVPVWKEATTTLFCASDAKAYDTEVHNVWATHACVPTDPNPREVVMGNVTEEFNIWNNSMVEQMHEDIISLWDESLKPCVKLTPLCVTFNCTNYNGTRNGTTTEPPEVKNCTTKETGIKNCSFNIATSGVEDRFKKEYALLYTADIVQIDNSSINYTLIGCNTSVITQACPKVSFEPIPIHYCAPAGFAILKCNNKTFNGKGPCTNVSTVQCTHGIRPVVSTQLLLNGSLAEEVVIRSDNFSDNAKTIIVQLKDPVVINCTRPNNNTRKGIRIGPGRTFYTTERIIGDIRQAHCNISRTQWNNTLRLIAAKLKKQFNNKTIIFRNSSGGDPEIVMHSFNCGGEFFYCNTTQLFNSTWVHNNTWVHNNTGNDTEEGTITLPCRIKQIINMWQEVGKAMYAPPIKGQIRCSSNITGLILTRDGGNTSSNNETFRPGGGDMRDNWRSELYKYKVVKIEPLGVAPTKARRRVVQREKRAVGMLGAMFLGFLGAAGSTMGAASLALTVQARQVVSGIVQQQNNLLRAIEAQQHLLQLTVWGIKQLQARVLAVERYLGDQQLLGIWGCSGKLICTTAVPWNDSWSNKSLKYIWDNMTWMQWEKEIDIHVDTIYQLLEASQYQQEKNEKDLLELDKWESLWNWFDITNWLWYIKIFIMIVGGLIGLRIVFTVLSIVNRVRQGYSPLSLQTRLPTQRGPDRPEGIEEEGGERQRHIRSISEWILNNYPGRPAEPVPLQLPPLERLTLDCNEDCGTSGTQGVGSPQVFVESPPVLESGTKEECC

[14] = cytotoxicity toward Colo320 cells – cell-based, CellTiter-Glo luminescence, IC50, dose response (AID 1117334); assay type: functional; conditions: COLO 320
[15] = glucagon-like peptide-1 release potency in STC-1, concentration-response, half-maximal inhibitory concentration in the STC-1 line (AID 1117345); assay type: functional, cell-based
[16] = system: Streptococcus sp. 'group A'; test: Streptococcus pyogenes SK(-)GAS viability under kanamycin – luminescence, BacTiterGlo, confirmation, counter-screen for streptokinase expression inhibitor project, dose response (AID 1900); assay type: functional, organism-based
[17] = system: Streptococcus; test: GAS UMAA2166 growth inhibition – luminescence, BacTiterGlo, counter-screen for streptokinase expression inhibitor project, dose response (AID 1915); assay type: functional, organism-based;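 further: potency for reduction of bacterial viability or growth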
[18] = target: Polyadenylate-binding protein 1 (Homo sapiens, UniProt P11940); test: blockers of PABP interaction with poly(A) – biochemical, fluorescence polarization, […] (AID 2014)
Polyadenylate-binding protein 1, sequence (P11940 whole entry): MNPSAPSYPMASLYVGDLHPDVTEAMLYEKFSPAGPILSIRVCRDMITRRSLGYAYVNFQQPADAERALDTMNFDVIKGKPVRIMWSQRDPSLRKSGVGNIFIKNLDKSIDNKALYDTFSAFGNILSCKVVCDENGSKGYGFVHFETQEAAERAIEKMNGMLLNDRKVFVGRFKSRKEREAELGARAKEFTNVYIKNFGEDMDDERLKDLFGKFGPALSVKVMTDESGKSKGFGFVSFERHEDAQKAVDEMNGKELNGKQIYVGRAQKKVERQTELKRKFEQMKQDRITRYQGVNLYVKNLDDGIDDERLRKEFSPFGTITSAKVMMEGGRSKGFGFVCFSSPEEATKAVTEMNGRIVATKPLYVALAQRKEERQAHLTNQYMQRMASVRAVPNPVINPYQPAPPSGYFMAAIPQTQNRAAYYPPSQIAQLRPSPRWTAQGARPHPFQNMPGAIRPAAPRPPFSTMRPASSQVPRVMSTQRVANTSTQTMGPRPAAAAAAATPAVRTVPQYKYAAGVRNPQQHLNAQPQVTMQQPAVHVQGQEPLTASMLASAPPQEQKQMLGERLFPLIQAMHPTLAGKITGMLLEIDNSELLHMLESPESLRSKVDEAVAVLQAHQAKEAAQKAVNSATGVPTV

[19] = target: Eukaryotic translation initiation factor 4H (Homo sapiens, UniProt Q15056); test: eIF4H binding inhibition – biochemical, uHTS, fluorescence polarization, translation initiation inhibitor project, primary screen (AID 2012)
[20] = target: ORF 73 (Human herpesvirus 8, UniProt O40947); test: KSHV LANA DNA-binding disruption – biochemical, fluorescence polarization, cherry-picked samples, dose response (AID 504725); set-up: species or system Human gammaherpesvirus 8;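 further: fluorescence polarization of a labeled DNA duplex reporting LANA DNA binding; potency is for inhibitors that block LANA binding to the DNA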
[21] = target: T2, Eukaryotic translation initiation factor 2-alpha kinase 3 (Homo sapiens, UniProt Q9NZJ5); test: Dose response cell-based high-throughput screening assay to measure PERK inhibition. [Related pubchem assays: 1416 ]; assay type: functional
T2 sequence (Q9NZJ5 whole entry): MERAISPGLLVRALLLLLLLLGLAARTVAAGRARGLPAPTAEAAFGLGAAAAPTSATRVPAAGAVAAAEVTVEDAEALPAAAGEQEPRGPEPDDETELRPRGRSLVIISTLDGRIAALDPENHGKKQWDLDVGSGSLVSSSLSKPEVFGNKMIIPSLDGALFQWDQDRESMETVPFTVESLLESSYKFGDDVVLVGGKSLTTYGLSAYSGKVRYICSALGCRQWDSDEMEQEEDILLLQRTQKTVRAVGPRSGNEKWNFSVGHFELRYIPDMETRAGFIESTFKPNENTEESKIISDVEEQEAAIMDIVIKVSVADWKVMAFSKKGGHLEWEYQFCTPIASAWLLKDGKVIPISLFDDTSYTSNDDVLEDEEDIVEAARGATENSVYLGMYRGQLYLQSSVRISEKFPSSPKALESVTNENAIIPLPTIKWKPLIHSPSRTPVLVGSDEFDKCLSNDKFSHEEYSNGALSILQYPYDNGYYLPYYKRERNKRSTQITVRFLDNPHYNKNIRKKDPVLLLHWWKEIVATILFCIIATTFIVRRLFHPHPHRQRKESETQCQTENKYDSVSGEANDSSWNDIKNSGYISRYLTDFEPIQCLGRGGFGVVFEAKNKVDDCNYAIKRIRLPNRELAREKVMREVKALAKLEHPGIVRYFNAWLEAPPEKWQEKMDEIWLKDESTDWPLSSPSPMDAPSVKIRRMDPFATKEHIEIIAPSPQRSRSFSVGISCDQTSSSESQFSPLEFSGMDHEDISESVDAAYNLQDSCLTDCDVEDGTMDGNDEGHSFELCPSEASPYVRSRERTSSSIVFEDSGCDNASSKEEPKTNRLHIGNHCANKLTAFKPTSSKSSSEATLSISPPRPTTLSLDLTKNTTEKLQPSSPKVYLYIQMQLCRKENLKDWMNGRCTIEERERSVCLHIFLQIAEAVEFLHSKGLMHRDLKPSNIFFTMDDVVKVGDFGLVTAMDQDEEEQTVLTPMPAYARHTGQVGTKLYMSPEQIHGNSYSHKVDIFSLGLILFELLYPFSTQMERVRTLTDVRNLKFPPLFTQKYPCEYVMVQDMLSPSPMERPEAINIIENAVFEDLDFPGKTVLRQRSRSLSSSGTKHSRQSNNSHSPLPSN

[22] = target: T2, Eukaryotic translation initiation factor 2-alpha kinase 3; test: Counterscreen assay for PERK inhibitors: Dose response cell-based high throughput screening assay to measure inhibition of PERK at 6 hours. [Related pubchem assays: 1522, 1416 ]; assay type: functional
[23] = target: Chaperone protein dnaK (Escherichia coli, UniProt C3TRK2); test: E. coli DnaK binders, calorimetric Kd – biophysical, isothermal titration calorimetry, beta-domain, full-length DnaK, orthogonal assay for DnaK modulator project, SAR follow-up (AID 1495)
Chaperone protein dnaK, sequence (C3TRK2 whole entry): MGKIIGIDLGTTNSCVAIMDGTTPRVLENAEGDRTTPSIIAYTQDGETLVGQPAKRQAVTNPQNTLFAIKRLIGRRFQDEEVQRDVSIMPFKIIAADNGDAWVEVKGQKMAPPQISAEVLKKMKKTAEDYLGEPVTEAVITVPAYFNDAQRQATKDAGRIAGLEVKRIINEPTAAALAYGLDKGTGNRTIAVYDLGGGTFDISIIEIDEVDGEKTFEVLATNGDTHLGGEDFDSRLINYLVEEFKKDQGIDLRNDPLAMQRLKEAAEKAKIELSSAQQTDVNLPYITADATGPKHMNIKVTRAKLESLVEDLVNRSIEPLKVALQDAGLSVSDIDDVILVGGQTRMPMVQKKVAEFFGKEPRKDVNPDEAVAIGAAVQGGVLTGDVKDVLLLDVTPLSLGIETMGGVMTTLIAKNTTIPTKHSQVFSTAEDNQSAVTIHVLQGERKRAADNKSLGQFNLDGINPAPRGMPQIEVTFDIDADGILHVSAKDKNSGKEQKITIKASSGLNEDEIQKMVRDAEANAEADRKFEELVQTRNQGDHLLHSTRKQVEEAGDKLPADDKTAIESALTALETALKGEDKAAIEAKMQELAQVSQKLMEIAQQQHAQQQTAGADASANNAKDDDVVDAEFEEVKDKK

Protein Rev, sequence (P04618 whole entry, the tested form may be a part): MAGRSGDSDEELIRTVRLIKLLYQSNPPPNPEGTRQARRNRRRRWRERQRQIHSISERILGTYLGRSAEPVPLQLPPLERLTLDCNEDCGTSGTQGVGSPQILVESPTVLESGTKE

SMILES: COC(=O)c1ccc2c(c1)SC1=C(O)CCCC1=N2
- IC50 [1]: > 75.4 µM (not active)
- IC50 [2]: > 83.3 µM (inactive)
- IC50 [3]: 6.11 µM (active)
- IC50 [4]: 17.9 µM (inactive)

SMILES: O=C(Nc1ccc(Oc2ccc(Cl)cc2)c(Cl)c1)c1cc(I)cc(I)c1O [RAFOXANIDE]
- IC50 [5]: 0.0108 µM (active)
- IC50 [6]: 0.0095 µM (active)
- IC50 [7]: 0.0084 µM (active)
- IC50 [8]: 0.0169 µM (active)
- IC50 [9]: 7.36 µM (active)
- IC50 [10]: > 40 µM (inactive)
- IC50 [11]: 0.0143 µM (active)
- IC50 [12]: 0.0303 µM (active)
- IC50 [13]: 19.7 µM (active)
- IC50 [14]: 0.054 µM (active)
- IC50 [15]: 1.3 µM (active)
- EC50 [16]: 0.08 µM (active)
- EC50 [17]: 0.137 µM (active)

SMILES: O=C(NCc1cccc2ccsc12)c1cccs1
- Kd [23]: 0.2 µM (active)

Other lines, results leading:

- IC50 [18]: 31 µM (active)
- IC50 [19]: 11 µM (active)
SMILES: COc1ccc2[nH]c(O)c(N=NC(=O)Cc3cccs3)c2c1

- AC50 [20]: 11.4 µM (active)
SMILES: O=C(Cn1nc(Cc2ccncc2)c2ccccc2c1=O)N1CCN(C(=O)c2ccco2)CC1

- EC50 [21]: > 55.7 µM (not active)
- EC50 [22]: > 55.7 µM (not active)
SMILES: Cc1c(O)n2c(nc1=O)sc1ccccc12
